Columns and labels:
Assay in all cases: relative viability (nuclei count vs DMSO), 5 days (fraction); higher = more cells survive
NCI-H23 = test system: NCI-H23
How it was run: (§1)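 Lung cancer cell lines in 1536-well plates were dosed by pin tool the day after seeding, either with one drug alone or with a fixed anchor-drug dose plus five library-drug doses (not always all listed) in √10 steps. After 5 days, cells were fixed and their nuclei stained in one step (final 0.05% Triton X-100, 1% formaldehyde, 1 ug/ml Hoechst), then counted on 4× images. Relative viability is the nuclei count in treated wells divided by that in vehicle wells. Values are medians of duplicate plates.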

SW 1573 = test system: SW 1573
How it was run: as §1

NCI-H596 = test system: NCI-H596
How it was run: as §1

LCLC-97TM1 = test system: LCLC-97TM1
How it was run: as §1

NCI-H2228 = test system: NCI-H2228
How it was run: as §1

HCC-44 = test system: HCC-44
How it was run: as §1

201T = test system: 201T
How it was run: as §1

NCI-H727 = test system: NCI-H727
How it was run: as §1

NCI-H1650 = test system: NCI-H1650
How it was run: as §1

A-427 = test system: A-427
How it was run: as §1

PC-3 [JPC-3] = test system: PC-3 [JPC-3]
How it was run: as §1

NCI-H1793 = test system: NCI-H1793
How it was run: as §1

SMILES: O=c1cc(N2CCOCC2)oc2c(-c3cccc4c3sc3ccccc34)cccc12 + N=C(N)NC(=N)NCCc1ccccc1 [Phenformin] (partner 250 µM)
- relative viability (NCI-H23; first compound 0.03162 µM): 0.801
- relative viability (NCI-H23; first compound 0.3162 µM): 0.792
- relative viability (NCI-H23; first compound 1 µM): 0.806
- relative viability (SW 1573; first compound 0.01 µM): 0.451
- relative viability (SW 1573; first compound 0.03162 µM): 0.395
- relative viability (SW 1573; first compound 0.1 µM): 0.426
- relative viability (SW 1573; first compound 0.3162 µM): 0.326
- relative viability (SW 1573; first compound 1 µM): 0.343
- relative viability (NCI-H596; first compound 0.01 µM): 0.73
- relative viability (NCI-H596; first compound 0.03162 µM): 0.837
- relative viability (NCI-H596; first compound 0.1 µM): 0.717
- relative viability (NCI-H596; first compound 0.3162 µM): 0.743
- relative viability (NCI-H596; first compound 1 µM): 0.76
- relative viability (LCLC-97TM1; first compound 0.01 µM): 0.43
- relative viability (LCLC-97TM1; first compound 0.03162 µM): 0.458
- relative viability (LCLC-97TM1; first compound 0.1 µM): 0.431
- relative viability (LCLC-97TM1; first compound 0.3162 µM): 0.378
- relative viability (LCLC-97TM1; first compound 1 µM): 0.449
- relative viability (NCI-H2228; first compound 0.01 µM): 0.372
- relative viability (NCI-H2228; first compound 0.03162 µM): 0.391
- relative viability (NCI-H2228; first compound 0.1 µM): 0.262
- relative viability (NCI-H2228; first compound 0.3162 µM): 0.259
- relative viability (NCI-H2228; first compound 1 µM): 0.37
- relative viability (HCC-44; first compound 0.01 µM): 0.249
- relative viability (HCC-44; first compound 0.03162 µM): 0.187
- relative viability (HCC-44; first compound 0.1 µM): 0.134
- relative viability (HCC-44; first compound 0.3162 µM): 0.366
- relative viability (HCC-44; first compound 1 µM): 0.139
- relative viability (201T; first compound 0.01 µM): 0.289
- relative viability (201T; first compound 0.03162 µM): 0.488
- relative viability (201T; first compound 0.1 µM): 0.469
- relative viability (201T; first compound 0.3162 µM): 0.441
- relative viability (201T; first compound 1 µM): 0.43
- relative viability (NCI-H727; first compound 0.01 µM): 0.645
- relative viability (NCI-H727; first compound 0.03162 µM): 0.546
- relative viability (NCI-H727; first compound 0.1 µM): 0.475
- relative viability (NCI-H727; first compound 0.3162 µM): 0.641
- relative viability (NCI-H727; first compound 1 µM): 0.581
- relative viability (NCI-H1650; first compound 0.01 µM): 0.352
- relative viability (NCI-H1650; first compound 0.03162 µM): 0.48
- relative viability (NCI-H1650; first compound 0.1 µM): 0.346
- relative viability (NCI-H1650; first compound 0.3162 µM): 0.449
- relative viability (NCI-H1650; first compound 1 µM): 0.362
- relative viability (A-427; first compound 0.01 µM): 0.31
- relative viability (A-427; first compound 0.03162 µM): 0.294
- relative viability (A-427; first compound 0.1 µM): 0.315
- relative viability (A-427; first compound 0.3162 µM): 0.313
- relative viability (A-427; first compound 1 µM): 0.341
- relative viability (PC-3 [JPC-3]; first compound 0.01 µM): 0.467
- relative viability (PC-3 [JPC-3]; first compound 0.03162 µM): 0.476
- relative viability (PC-3 [JPC-3]; first compound 0.1 µM): 0.441
- relative viability (PC-3 [JPC-3]; first compound 0.3162 µM): 0.496
- relative viability (PC-3 [JPC-3]; first compound 1 µM): 0.513
- relative viability (NCI-H1793; first compound 0.01 µM): 0.386
- relative viability (NCI-H1793; first compound 0.1 µM): 0.345
- relative viability (NCI-H1793; first compound 0.3162 µM): 0.375
- relative viability (NCI-H1793; first compound 1 µM): 0.363
